Data from patent US10358453B2, “Antiviral compounds” (priority 2015, dated 2019).
Like-named read-outs stand apart in the source and are kept apart here.

Columns and labels:
[1] = tested on: RSV subgenomic replicon 395 HeLa and APC126; assay: RSV subgenomic replicon assay (Renilla luciferase); type: cell-based; settings: RSV replicon cells (395 HeLa 7 days or APC126 3 days), Table G = less than 1 μM, Table H = equal to or higher than 1 μM and less than 50 μM
Description: The RSV subgenomic replicon 395 HeLa and APC126 were licensed from Apath (Brooklyn, N.Y.) and were originally developed by Dr. Mark Meeples of Center for Vaccines & Immunity, the Research Institute at Nationwide Children's Hospital in Columbus, Ohio. To generate subgenomic RSV replicon, three glycoprotein genes, those for SH, G, and F, from a full-length recombinant GFP-expressing (rg) RSV antigenomic cDNA were deleted. In their place, a blasticidin S deaminase (bsd) gene was inserted. Through multiple steps, the RSV replicon was established in HeLa cells (395 Hela) or BHK cells (APC126). Both 395 HeLa and APC126 cells were cultured in Dulbecco's Modified Eagle Medium (DMEM) containing 4500 mg/L D-glucose, L-glutamine, and 110 mg/L sodium pyruvate (Invitrogen, Cat. #11995-040). The medium was further supplemented with 10% (v/v) fetal bovine serum (FBS) (Mediatech, Cat. #35-010-CV), 1% (v/v) penicillin/streptomycin (Mediatech, Cat. #30-002-CI), and 10 μg/mL of Blasticidin (BSD) (Invivogen, Cat. code ant-bl-1). Cells were maintained at 37° C. in a humidified 5% CO2 atmosphere.
Determination of 50% inhibitory concentration (EC50), 90% inhibitory concentration (EC90) and 50% cytotoxic concentration (CC50) in RSV replicon cells were performed by the following procedure. On the first day, 5000 RSV replicon cells per well were plated in a 96-well plate. On the following day, compounds to be tested were solubilized in 100% DMSO to 100X the desired final testing concentration. Each compound was serially diluted (1:3) up to 9 distinct concentrations. Compounds in 100% DMSO were reduced to 10% (v/v) DMSO by diluting 1:10 in cell culture media. A 10 μL sample of the compounds diluted to 10% (v/v) DMSO with cell culture media was used to treat the RSV replicon cells in 96-well format. The final DMSO concentration was 1% (v/v). Cells were incubated with compounds for 7 days (for 395Hela) or 3 days (for APC126) at 37° C. in a 5% CO2 atmosphere. In each assay, positive control that was previously characterized in the RSV replicon assay was included.
The Renilla Luciferase Assay System (Promega, Cat. #E2820) was used to measure anti-RSV replicon activity. Assay plates were set up as stated above. Luminescence was recorded using a Perkin Elmer multilabel counter Victor3V. EC50, the concentration of the drug required for reducing RSV replicon RNA by 50% in relation to the untreated cell control value, was calculated from the plot of percentage reductions of the […] against the drug concentrations using the Microsoft Excel forecast function.

recombinant RSV complex = recombinant RSV complex (Human respiratory syncytial virus A, UniProt P28887); assay: RSV polymerase inhibition assay; type: biochemical; settings: 2 h at 30° C., Table E = <1 μM, Table F = <50 μM
Sequence of recombinant RSV complex (P28887 whole entry): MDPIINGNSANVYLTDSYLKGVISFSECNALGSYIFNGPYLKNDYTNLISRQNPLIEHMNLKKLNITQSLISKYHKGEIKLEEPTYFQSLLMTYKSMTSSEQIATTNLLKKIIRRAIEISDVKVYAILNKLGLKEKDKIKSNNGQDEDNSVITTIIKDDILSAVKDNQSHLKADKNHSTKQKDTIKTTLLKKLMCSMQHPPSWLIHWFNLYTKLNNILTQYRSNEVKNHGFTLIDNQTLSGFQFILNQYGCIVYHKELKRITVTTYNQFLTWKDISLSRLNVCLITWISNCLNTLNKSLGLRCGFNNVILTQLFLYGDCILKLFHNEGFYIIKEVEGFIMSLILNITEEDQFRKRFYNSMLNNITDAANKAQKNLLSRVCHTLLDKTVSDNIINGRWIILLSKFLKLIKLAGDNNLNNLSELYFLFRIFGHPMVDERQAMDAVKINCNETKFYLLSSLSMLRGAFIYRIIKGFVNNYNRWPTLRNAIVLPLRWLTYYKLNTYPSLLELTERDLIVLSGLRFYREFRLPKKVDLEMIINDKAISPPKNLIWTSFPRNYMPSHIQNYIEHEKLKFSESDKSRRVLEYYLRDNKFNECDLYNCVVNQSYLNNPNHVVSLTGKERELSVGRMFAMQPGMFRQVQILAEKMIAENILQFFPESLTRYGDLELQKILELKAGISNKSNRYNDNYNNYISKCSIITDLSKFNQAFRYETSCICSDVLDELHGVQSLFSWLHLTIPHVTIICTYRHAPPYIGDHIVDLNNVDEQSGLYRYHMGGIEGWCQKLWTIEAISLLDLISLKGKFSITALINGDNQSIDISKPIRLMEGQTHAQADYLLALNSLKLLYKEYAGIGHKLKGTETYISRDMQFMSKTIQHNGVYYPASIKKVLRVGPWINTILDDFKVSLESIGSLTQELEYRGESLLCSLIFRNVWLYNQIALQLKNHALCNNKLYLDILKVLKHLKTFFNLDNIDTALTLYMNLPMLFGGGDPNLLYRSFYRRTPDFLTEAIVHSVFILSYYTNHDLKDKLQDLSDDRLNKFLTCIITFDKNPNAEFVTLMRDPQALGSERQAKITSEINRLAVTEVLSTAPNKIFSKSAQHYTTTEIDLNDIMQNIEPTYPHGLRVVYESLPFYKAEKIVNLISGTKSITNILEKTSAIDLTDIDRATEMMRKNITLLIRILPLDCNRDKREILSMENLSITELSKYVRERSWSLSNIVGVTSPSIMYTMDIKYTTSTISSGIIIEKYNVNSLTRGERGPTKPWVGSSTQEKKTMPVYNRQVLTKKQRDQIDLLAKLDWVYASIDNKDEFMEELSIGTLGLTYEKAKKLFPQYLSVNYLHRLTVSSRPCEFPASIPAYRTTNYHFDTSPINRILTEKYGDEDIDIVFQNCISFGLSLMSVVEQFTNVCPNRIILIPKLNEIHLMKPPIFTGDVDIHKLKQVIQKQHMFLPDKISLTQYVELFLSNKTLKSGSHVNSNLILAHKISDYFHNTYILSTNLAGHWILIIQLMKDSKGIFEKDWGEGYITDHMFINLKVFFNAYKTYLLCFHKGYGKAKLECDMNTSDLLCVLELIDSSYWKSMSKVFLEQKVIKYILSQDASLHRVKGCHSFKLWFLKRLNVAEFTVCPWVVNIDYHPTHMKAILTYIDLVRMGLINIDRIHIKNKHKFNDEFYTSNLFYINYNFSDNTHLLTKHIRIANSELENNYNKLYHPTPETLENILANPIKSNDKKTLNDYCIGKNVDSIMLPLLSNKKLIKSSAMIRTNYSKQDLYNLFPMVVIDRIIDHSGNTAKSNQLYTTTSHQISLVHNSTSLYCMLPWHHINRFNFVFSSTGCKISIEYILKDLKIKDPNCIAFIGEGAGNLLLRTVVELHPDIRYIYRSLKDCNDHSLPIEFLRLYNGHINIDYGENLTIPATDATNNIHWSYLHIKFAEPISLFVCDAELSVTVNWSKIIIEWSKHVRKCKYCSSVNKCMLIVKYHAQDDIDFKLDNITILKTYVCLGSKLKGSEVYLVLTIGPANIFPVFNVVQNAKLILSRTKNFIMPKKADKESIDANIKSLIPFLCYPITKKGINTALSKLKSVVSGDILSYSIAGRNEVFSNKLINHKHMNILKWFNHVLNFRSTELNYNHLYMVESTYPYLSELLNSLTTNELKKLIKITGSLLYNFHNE
Sequence of recombinant RSV complex (P03421 whole entry, further chain): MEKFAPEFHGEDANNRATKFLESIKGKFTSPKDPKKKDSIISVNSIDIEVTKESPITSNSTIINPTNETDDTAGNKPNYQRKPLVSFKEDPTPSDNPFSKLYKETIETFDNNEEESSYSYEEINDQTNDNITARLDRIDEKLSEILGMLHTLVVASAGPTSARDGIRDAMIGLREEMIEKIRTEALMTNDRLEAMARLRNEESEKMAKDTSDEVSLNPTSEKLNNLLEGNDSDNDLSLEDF
Method: Standard RSV polymerase assays were conducted in the presence of 10 nM recombinant RSV complex in a reaction buffer containing Tris-HCl pH7.5, 6 mM MgCl2, and other additives and substrates including RNA oligonucleotides and radionucleotides. Standard reactions were incubated in 96-well plate format for 2 h at 30° C., in the presence of increasing concentration of inhibitor. The reaction was stopped with 90 μL of 0.1M EDTA, and the reaction product was transferred to a “reading” 96-well plate. After washing of the plate, radiolabeled RNA products were detected according to standard procedures with a Trilux Topcount scintillation counter. The compound concentration at which the enzyme-catalyzed rate was reduced by 50% (IC50) was calculated by fitting the data to a non-linear regression (sigmoidal).

[2] = Cytotoxicity determination (CCK-8, without addition of virus); type: cell-based; settings: human, HEp-2 cells (uninfected), no virus, Table C = greater than 100 μM, Table D = equal to or less than 100 μM and greater than 10 μM
Method: CPE reduction assays are performed as described by Sidwell and Huffman et al., Appl. Microbiol. (1971) 22(5):797-801 with slight modifications. HEp-2 cells (ATCC#, CCL-23) are seeded at a density of 1,500 cells/30 μL/well into the 384-well cell plate(s) (Corning#3701) one day prior to the assay. Compounds are added into 384-well cell plates by Labcyte POD 810 Plate Assembler system. Each of the test compounds is provided to duplicate wells of a 384-well cell plate at final concentrations starting from 100 μM or 1 μM using 1/3 stepwise dilutions for 9 points. Quick-thaw Respiratory Syncytial Virus (RSV) long strain (ATCC#VR-26) stock in a 37° C. water bath. Place on ice until ready to use. Viruses are diluted to the concentration of 100 TCID50/30 μL with medium and 30 μl diluted RSV are added into related wells of 384-well cell plates. For each plate, sixteen wells are set aside as uninfected, untreated cell controls (CC), and nine wells per test plate receive virus only as a control for virus replication (VC). The final DMSO concentration of all wells is 1%. Place the plates at 37° C., 5% CO2 for 5 days.
In order to determine the compound cytotoxicity, in parallel, each of the compounds is applied to duplicate wells in a 384-well cell plate at serial final concentrations starting from 100 μM using ½ stepwise dilutions for 7 points without addition of virus. Incubate the cells at 37° C., 5% CO2 for 5 days. Add 6 μL CCK-8 into each well and incubate in a CO2 incubator at 37° C. for 3-4 h. Read the plates to obtain the optical densities which are used to calculate 50% cytotoxicity concentration (CC50).

[3] = 10 nM recombinant RSV complex, read-out: IC50
[4] = human respiratory syncytial virus

| Compound | IC50 (recombinant RSV complex; [3]) [nM] | CC50 at 5 days [2] [nM] | other results |
| --- | --- | --- | --- |
| C[C@@]1(N)CNc2c1cc([C@](O)(CNC(=O)c1ccc(OC3CC3)c(OC3CC3)c1)C(F)(F)F)nc2-c1ccc(F)cc1 [Compound 126] | < 1000 |  | EC50 [1]: < 1000 nM |
| CC[C@]1(N)COc2c1cc([C@](O)(CNC(=O)c1ccc(OC[C@@H](C)O)c(OC)c1)C(F)(F)F)nc2-c1ccc(F)cc1 [Compound 133] | < 1000 |  |  |
| COc1cc(C(=O)NCC(O)(c2cc3c(c(-c4ccc(F)cc4)n2)OCC32CCN2)C(F)(F)F)ccc1OC[C@@H](C)O (some centres unmarked) [Compound 108] | < 1000 | 10000 to 100000 | EC50 [1, 4]: 1000 to 50000 nM |
| C[C@@]1(N)COc2c1cc([C@](O)(CNC(=O)c1cc(OC(F)F)c3[nH]ccc3c1)C(F)(F)F)nc2-c1ccc(F)cc1 [Compound 94] | < 1000 | 10000 to 100000 | EC50 [1, 4]: < 1000 nM |
| COc1cc(C(=O)NC[C@@](O)(c2cc3c(c(-c4ccc(F)cc4)n2)OC[C@@]3(C)N)C(F)(F)F)cc2ccn(CCO)c12 [Compound 89] | < 1000 |  |  |
| COc1cc(C(=O)NCC(O)(c2cc3c(c(-c4ccc(F)cc4)n2)OCCC3(C)N)C(F)(F)F)ccc1OC[C@@H](C)O (some centres unmarked) [Compound 103] | < 1000 | 10000 to 100000 | EC50 [1, 4]: < 1000 nM |
| C[C@@]1(N)COc2c1cc([C@](O)(CNC(=O)c1cc3c(c(OC(F)F)c1)NC(=O)C3)C(F)(F)F)nc2-c1ccc(F)cc1 [Compound 98] | < 1000 | 10000 to 100000 | EC50 [1, 4]: < 1000 nM |
| COc1cc(C(=O)NC[C@@](O)(c2cc3c(c(-c4ccc(F)cc4)n2)OC[C@@]3(C)N)C(F)(F)F)cc(OC)c1OCCO [Compound 67] |  | > 100000 | EC50 [1, 4]: < 1000 nM; IC50 (recombinant RSV complex; IC50, 10 nM recombinant RSV complex): < 50000 nM |
| COc1cc(C(=O)NCC(O)(c2cc3c(c(-c4ccc(F)cc4)n2)CCC3(C)N)C(F)(F)F)ccc1OCCO (centres unmarked) [Compound 73] | < 1000 | 10000 to 100000 | EC50 [1, 4]: < 1000 nM |
| COc1cc(C(=O)NCC(O)(c2cc3c(c(-c4ccccc4)n2)OCC3(C)N)C(F)(F)F)ccc1OCCO (centres unmarked) [Compound 27] | < 1000 | 10000 to 100000 |  |
| COc1cc(C(=O)NC[C@@](O)(c2cc3c(C)c[nH]c3c(-c3ccc(F)cc3)n2)C(F)(F)F)ccc1OCCO [Compound 111] | < 1000 | 10000 to 100000 |  |
| CC(C)(N)c1cc(-c2ccc(F)cc2)nc([C@](O)(CNC(=O)c2ccc(OC3CC3)c(OCCO)c2)C(F)(F)F)c1 [Compound 58] | < 1000 |  |  |
| COc1cc(C(=O)NC[C@](O)(c2cc3c(c(-c4ccc(F)cc4)n2)NC[C@]3(C)N)C(F)(F)F)ccc1OCCO (single isomer, unassigned) [Compound 53] | < 1000 |  |  |
| CC1(N)COc2c1cc(C(O)(CNC(=O)c1ccc3c(c1)OCCN3CCO)C(F)(F)F)nc2-c1ccc(F)cc1 (centres unmarked) [Compound 33] | < 1000 |  | EC50 [1, 4]: < 1000 nM |
| CC1(N)COc2c1cc(C(O)(CNC(=O)c1cc3c(c(OC4CC4)c1)OC(=O)NC3)C(F)(F)F)nc2-c1ccc(F)cc1 (centres unmarked) [Compound 32] | < 1000 |  |  |
| COc1cc(C(=O)NCC(O)(c2cc(C3(C)CCNC3)cc(-c3ccc(F)cc3)n2)C(F)(F)F)ccc1OCCO (centres unmarked) [Compound 116] | < 1000 | 10000 to 100000 |  |
| COc1cc(C(=O)NCC(O)(c2cc3c(c(-c4ccc(F)cc4)n2)OCC3(C)N)C(F)(F)F)cc2c1NC(=O)C2 (centres unmarked) [Compound 9] | < 1000 |  |  |

| Compound | IC50 (recombinant RSV complex; [3]) [nM] | CC50 at 5 days [2] [nM] | other results |
| --- | --- | --- | --- |
| COc1cc(C(=O)NCC(O)(c2nc(-c3ccc(F)cc3)c3ccccn23)C(F)(F)F)ccc1OCCO (centres unmarked) [Compound 54] | < 50000 |  |  |
| COc1cc(C(=O)NCC(O)(c2cc3c(c(-c4ccc(F)cc4)n2)OCC32CCN2)C(F)(F)F)ccc1OCCO (centres unmarked) [Compound 109] | < 1000 | 10000 to 100000 |  |
| CC(C)(N)c1cc(-c2ccc(F)cc2)nc([C@](O)(CNC(=O)c2ccc(OCCO)c(OC3CC3)c2)C(F)(F)F)c1 [Compound 56] | < 1000 |  |  |
| COc1cc(C(=O)NC[C@@](O)(c2cc3c(c(-c4ccc(F)cc4)n2)OC[C@@]3(C)N)C(F)(F)F)ncc1OCCO [Compound 77] | < 1000 |  |  |
| COc1cc(C(=O)NC[C@@](O)(c2cc3c(c(-c4ccc(F)cc4)n2)OC[C@@]3(C)N)C(F)(F)F)cc2c1NCCC2 [Compound 96] | < 1000 |  | EC50 [1, 4]: < 1000 nM |
| COc1nc(C(=O)NCC(O)(c2cc3c(c(-c4ccc(F)cc4)n2)OCC3(C)N)C(F)(F)F)cc2oc(=O)[nH]c12 (centres unmarked) [Compound 48] | < 50000 | 10000 to 100000 |  |
| COc1cc(C(=O)NC[C@@](O)(c2cc3c(c(-c4ccc(F)cc4)n2)NCC[C@]3(C)N)C(F)(F)F)ccc1OC[C@@H](C)O [Compound 100] | < 50000 |  |  |
| COc1cc(C(=O)NCC(O)(c2cc3c(c(-c4ccc(F)cc4)n2)OC[C@@]3(C)N)C(F)(F)F)cc2c1OC(=O)NC2 (some centres unmarked) [Compound 17] | < 1000 |  |  |
| CC1(N)COc2c1cc(C(O)(CNC(=O)c1ccc(OC3CC3)c(OC3CC3)c1)C(F)(F)F)nc2-c1ccc(F)cc1 (centres unmarked) [Compound 25] | < 1000 | 10000 to 100000 |  |
| COc1cc(C(=O)NCC(O)(c2nc(-c3ccc(F)cc3)n3ccccc23)C(F)(F)F)ccc1OCCO (centres unmarked) [Compound 137] | < 1000 |  |  |
| CC1(N)COc2c1cc(C(O)(CNC(=O)c1ccc(OC3CC3)c(OCCO)c1)C(F)(F)F)nc2-c1ccc(F)cc1 (centres unmarked) [Compound 35] | < 1000 |  |  |
| COc1ccc(C(=O)NCC(N)(c2cc(C(C)(C)N)cc(-c3ccc(F)cc3)n2)C(F)(F)F)cc1OCCO (centres unmarked) [Compound 42] | < 1000 |  |  |
| COc1cc(C(=O)NCC(O)(c2cc3c(c(-c4ccc(F)cc4)n2)OCC3(C)N)C(F)(F)F)ccc1C#CCO (centres unmarked) [Compound 28] | < 1000 |  | EC50 [1, 4]: < 1000 nM |
| COc1cc(C(=O)NCC(O)(c2cn(C(C)(C)CN)cc(-c3ccc(F)cc3)c2=O)C(F)(F)F)ccc1OCCO (centres unmarked) [Compound 78] | < 50000 |  |  |
| COc1nc(C(=O)NC[C@@](O)(c2cc3c(c(-c4ccc(F)cc4)n2)NC[C@@]3(C)N)C(F)(F)F)cc2c1NC(=O)C2 [Compound 99] | < 1000 |  |  |
| CC1(N)COc2c1cc(C(O)(CNC(=O)c1cnc(OCCO)cc1O)C(F)(F)F)nc2-c1ccc(F)cc1 (centres unmarked) [Compound 46] |  | > 100000 |  |
| C[C@@]1(N)COc2c1cc([C@](O)(CNC(=O)c1ccc(Cl)s1)C(F)(F)F)nc2-c1ccc(F)cc1 [Compound 110] |  | 10000 to 100000 |  |
